Reference: article PMC9138141, “Design, Spectral Characteristics, Photostability, and Possibilities for Practical Application of BODIPY FL-Labeled Thioterpenoid” (Bioengineering, 2022)
Read-outs that look alike come from different tables or passages of the source.

Columns and labels:
[1] = test system: laboratory mice erythrocytes; test: Hemolytic activity (erythrotoxicity); assay type: cell-based; details: 20 µM, entire incubation period 5 h, 37 °C, PBS pH 7.4
Experimental: A 0.5% (v/v) suspension of laboratory mice erythrocytes in phosphate-buffered saline (PBS, pH 7.4) was used. The hemolytic activity (erythrotoxicity) of the compounds 2 and 6 was assessed by the degree of erythrocyte hemolysis 1, 3, and 5 h after the addition of solutions of the test compounds in DMSO (final concentration 20 μM). The erythrocyte suspension was incubated in a thermostatic shaker Biosan ES-20 with slow stirring at 37 °C temperature for 5 h. After 1, 3, and 5 h, an aliquot was taken, centrifuged, the degree of hemolysis was determined by the hemoglobin content in the supernatant on a Thermo Spectromic Genesys 20 spectrophotometer at λ = 541 nm. The percentage of hemolysis was calculated relative to the total hemolysis of the sample.

[2] = test system: laboratory mice erythrocytes; test: Penetration into RBC (fluorescence of hemolysates and of residual medium); assay type: cell-based; details: 20 μM, 10, 30, 60 min incubation, RBC washed three times with PBS
Experimental: To assess the rate of penetration of the BODIPY 2 and its conjugate with a thioterpenoid 6 into RBC, the compounds were added to a suspension of erythrocytes (final concentration 20 μM) and incubated in a thermostatic shaker Biosan ES-20 with slow stirring at 37 °C. After 10, 30, and 60 min, an aliquot was taken and centrifuged to separate erythrocytes from the incubation medium containing the BODIPY 2 or conjugate 6. Erythrocytes were washed three times with PBS, hemolyzed by adding H2O, DMSO was added, and the fluorescence spectra of hemolysates were studied using a Fluorat-02-Panorama spectrofluorometer (Lumex, Saint Petersburg, Russia). The binding of the BODIPY 2 or conjugate 6 to cells was judged from the fluorescence intensity of the corresponding compounds in hemolysates. DMSO was added to the medium (PBS) remaining after cell incubation, and the corresponding fluorescence spectra were also analyzed. Its intensity was used to judge the residual content of the studied compounds in PBS.

[3] = Photobleaching (photodegradation) under UV irradiation at 365 nm; assay type: physicochemical; details: for kobs∙106 of photodegradation / half-life: UV 365 nm; for half-life: read-out: t1/2 of photodegradation (converted)
Experimental: The photofading was carried out in quartz cells. The BODIPY solutions in cyclohexane (toluene, 1-octanol, DMSO with c = ~1·10^−5 mol·L^−1) were irradiated with monochromatic light (mercury lamp 250 W with a light filter Carl Zeiss JENA, at λ = 365 nm and room temperature). The area of the light flux was 2.02 cm^2 at a specific power W365 = 4.04 mW·cm^−2 of the UV lamp. The irreversible bleaching of the luminophores at the absorption peak was monitored as a function of time. The EAS of the dye solution was recorded at equal intervals of irradiation (through 5–20 min) on a spectrofluorometer SM2203 in the 300–600 nm wavelength range. The half-life (t1/2) was defined as the time during which the chromophore is destroyed by 50%. The error in determining of t1/2 is 3–5%.
The observed photooxidation rate constants (kobs) were determined by the equation ln(At/A0) = kobs∙t, where A0 and At are the initial and current optical density at the maximum of the long-wavelength absorption band, respectively, and t is the time of irradiation of the sample with UV light.

[4] = Luminescent characteristics (fluorescence) in organic solvents; assay type: physicochemical; details: for λmaxfl: λex 470 nm
Experimental: (§1) The absorption and emission spectra of dyes solutions (in the range of 10^−6 to 10^−5 M) were recorded on CM 2203 spectrofluorometer (SOLAR) in a 10 mm of absorbing layer thickness at T = 25 ± 0.1 °C. The fluorescence quantum yield (φ), the fluorescence lifetime (τ), the rate constants of radiative processes (krad), and-radiative deactivation (knr) were obtained to use by the standard procedure. The fluorescence quantum yields (φ) of compounds were measured using the standard method (using standard Rhodamine 6G). The φ and τ errors were 10–15 %. The Stokes shift ( ΔλSt ) was calculated by the formula: […]

[5] = Electronic absorption spectra in organic solvents; assay type: physicochemical
Experimental: as §1

[6] = range over the solvents studied

With `COC(=O)CCCC1=C2C(C)=CC(C)=[N+]2[B-](F)(F)n2c(C)cc(C)c21` [Compound 2] the “hemolysis of RBC (erythrotoxicity)” value [1] was “did not exceed the spontaneous level”, the “penetration into erythrocytes (fluorescence of RBC hemolysates)” value [2] was “practically not detected in hemolysates” and the “kobs∙106 of photodegradation” value ([3]; 1-octanol) was 3.1 ± 0.3 s⁻¹. The “kobs∙106 of photodegradation” value ([3]; DMSO) was 27.7 ± 0.3 s⁻¹, the “kobs∙106 of photodegradation” value ([3]; cyclohexane) was 2.9 ± 0.3 s⁻¹ and the half-life ([3]; solution in 1-octanol, 1-octanol) was 82.3 h. It also gave a half-life ([3]; solution in DMSO, DMSO) of 8.3 h, a half-life ([3]; solution in cyclohexane, cyclohexane) of 88.6 h and a half-life ([3]; solution in toluene, toluene) of 40.5 h. The “half-life increase / photodestruction rate constant decrease compared to 7” value ([3]; studied solvents) was 1.5–2.2 times, the “kobs∙106 of photodegradation” value ([3]; toluene) was 5.5 ± 0.3 s⁻¹ and the “ΔλSt, Stokes shift” value ([4]; 1-butanol) was 15 nm. The “φ, fluorescence quantum yield” value ([4]; 1-butanol) was 0.966, the λmaxfl ([4]; 1-butanol) was 513 nm and the “ΔλSt, Stokes shift” value ([4]; 1-octanol) was 16 nm. The “φ, fluorescence quantum yield” value ([4]; 1-octanol) was 0.989, the λmaxfl ([4]; 1-octanol) was 515 nm and the “ΔλSt, Stokes shift” value ([4]; 1-propanol) was 16 nm. For the same compound, the “φ, fluorescence quantum yield” value ([4]; 1-propanol) was 0.956, the λmaxfl ([4]; 1-propanol) was 514 nm and the “ΔλSt, Stokes shift” value ([4]; DMF) was 15 nm. For the same compound, the “φ, fluorescence quantum yield” value ([4]; DMF) was 0.836, the λmaxfl ([4]; DMF) was 512 nm and the “ΔλSt, Stokes shift” value ([4]; DMSO) was 15 nm. The “φ, fluorescence quantum yield” value ([4]; DMSO) was 0.769, the λmaxfl ([4]; DMSO) was 512 nm and the “ΔλSt, Stokes shift” value ([4]; chloroform) was 15 nm. The “φ, fluorescence quantum yield” value ([4]; chloroform) was 0.908, the λmaxfl ([4]; chloroform) was 516 nm and the “ΔλSt, Stokes shift” value ([4]; cyclohexane) was 12 nm. For the same compound, the “φ, fluorescence quantum yield” value ([4]; cyclohexane) was 0.999, the λmaxfl ([4]; cyclohexane) was 512 nm and the fluorescence quenching ([4]; electron-donating media) was 16–24%. The “ΔλSt, Stokes shift” value ([4]; ethanol) was 13 nm, the “φ, fluorescence quantum yield” value ([4]; ethanol) was 0.910 and the “increase of fluorescence quantum yield in the homologous series of alcohols” value ([4]; ethanol, 1-propanol, 1-butanol, 1-octanol) was ~ 8%. The λmaxfl ([4]; ethanol) was 510 nm, the “constants of radiative processes (krad)” value [4, 6] was 5.96–8.33 × 10^7 s^−1 and the fluorescence lifetime [4, 6] was 10.2–16.0 ns. For the same compound, the “ΔλSt, Stokes shift” value ([4]; toluene) was 17 nm, the “φ, fluorescence quantum yield” value ([4]; toluene) was 0.991 and the λmaxfl ([4]; toluene) was 518 nm. The “emission band maxima λmaxfl, range” value ([4]; λex = 470 nm, all solvents) was 510–519 nm, the “ε, molar absorption coefficient” value ([5]; 1-butanol) was 74136 L/mol/cm and the “λmaxabs S0→S1” value ([5]; 1-butanol) was 498 nm. The “λmaxabs S0→S2” value ([5]; 1-butanol) was 356–363 nm, the “ε, molar absorption coefficient” value ([5]; 1-octanol) was 72443 L/mol/cm and the “λmaxabs S0→S1” value ([5]; 1-octanol) was 499 nm. The “λmaxabs S0→S2” value ([5]; 1-octanol) was 357–364 nm, the “ε, molar absorption coefficient” value ([5]; 1-propanol) was 74948 L/mol/cm and the “λmaxabs S0→S1” value ([5]; 1-propanol) was 498 nm. For the same compound, the “λmaxabs S0→S2” value ([5]; 1-propanol) was 359–369 nm, the “ε, molar absorption coefficient” value ([5]; DMF) was 76709 L/mol/cm and the “λmaxabs S0→S1” value ([5]; DMF) was 497 nm. The “λmaxabs S0→S2” value ([5]; DMF) was 357–363 nm, the “ε, molar absorption coefficient” value ([5]; DMSO) was 66069 L/mol/cm and the “λmaxabs S0→S1” value ([5]; DMSO) was 497 nm. For the same compound, the “λmaxabs S0→S2” value ([5]; DMSO) was 356–363 nm, the “ε, molar absorption coefficient” value ([5]; chloroform) was 74131 L/mol/cm and the “λmaxabs S0→S1” value ([5]; chloroform) was 501 nm. For the same compound, the “λmaxabs S0→S2” value ([5]; chloroform) was 358–363 nm, the “ε, molar absorption coefficient” value ([5]; cyclohexane) was 87724 L/mol/cm and the “λmaxabs S0→S1” value ([5]; cyclohexane) was 500 nm. The “λmaxabs S0→S2” value ([5]; cyclohexane) was 359–364 nm, the “ε, molar absorption coefficient” value ([5]; ethanol) was 72444 L/mol/cm and the “λmaxabs S0→S1” value ([5]; ethanol) was 497 nm. For the same compound, the “λmaxabs S0→S2” value ([5]; ethanol) was 356–361 nm, the “ε, molar absorption coefficient” value ([5]; toluene) was 79432 L/mol/cm and the “λmaxabs S0→S1” value ([5]; toluene) was 501 nm. The “λmaxabs S0→S2” value ([5]; toluene) was 360–368 nm.
